Results taken from patent US20240285583A1, “PHARMACEUTICAL COMPOSITION COMPRISING 1-(3-CYANO-1-ISOPROPYL-INDOL-5-YL)PYRAZOLE-4-CARBOXYLIC ACID” (LG CHEM, LTD., priority 2021, published 2024).

Legend:
[1] = test system: gout patient group; test: Phase 2 clinical trial (NCT03934099): analysis of TEAEs; assay type: in vivo, human
Procedure: (§1) A phase 2 clinical trial was conducted to analyze the dosage, TEAEs, and the like when the compound of Formula 1 (1-(3-cyano-1-isopropyl-indol-5-yl)pyrazol-4-carboxylic acid; compound of Example 1) is administered to a gout patient group.
Selected patients gave written informed consent according to institutional and study procedures. After screening and wash-out processes (days 26 to 33 pre-dose), a total of 156 patients were finally enrolled, and each patient was randomly assigned to 5 groups of 50 mg, 100 mg and 200 mg dosing groups of the compound of Example 1, a placebo group, and a febuxostat group. Patients in each group self-administered 1 tablet of a combination drug (colchicine, 0.6 mg/day) for the prevention of gout flare along with the assigned investigational drug (50 mg, 100 mg and 200 mg doses of the compound of Example 1, placebo, and 40 mg of febuxostat group) orally, once every morning, at about the same time each day, with water, regardless of food.
The drug was administered for 84 days by setting the first dosing day of the drug as day 1, and basic tests, blood uric acid concentration and the like were measured at clinic visits on 14 days (week 2), 28 days (week 4), 56 days (week 8), and 84 days (week 12) during the dosing period to determine whether TEAEs occurred. After the end of drug administration, a safety follow-up was performed for an additional 2 weeks (98 days, week 14).
Among all patient groups participating in the clinical trial, although the administration was stopped for 3 patients due to headache, gout flare in the left ankle, and liver dysfunction in the 100 mg dosing group of Example 1 and for 1 patient due to an increase in hepatic enzyme in the 200 mg dosing group, no significant treatment emergency adverse event (TEAE) was found in the remaining patient groups.

[2] = test system: gout patient group; test: Phase 2 clinical trial (NCT03934099): blood uric acid concentration in gout patients; assay type: in vivo, human
Procedure: as §1
• 1. Written informed consent (signed and dated) provided voluntarily prior to the start of the study. • 2. Male or female aged from 18 to 75 • 3. History or experience of hyperuricemia and gout in accordance with the criteria of the American College of Rheumatology. • 4. Self-reported history of 2 or more gout flare within 12 months prior to screening visit (Visit 1). • 5. Blood uric acid (sUA) levels at Visit 1 of 6.0 mg/dL or more in subjects who were receiving urate lower therapy (ULT) with allopurinol, febuxostat, probenecid, or lesinurad; and SUA levels at Visit 1 of 8.0 mg/dL or more and 12.0 mg/dL or less in subjects who had no history of receiving the ULT or were not receiving the ULT at visit 1. • 6. SUA levels of 8.0 mg/dL or more and 12.0 mg/dL or less at Visit 3. • 7. Body mass index of 42 kg/m^2 or less at screening visit (Visit 1). • 8. Estimated glomerular filtration rate (eGFR) of 60 mL/min/1.73 m^2 or more at screening visit (Visit 1). • 9. Subjects of childbearing potential with a negative pregnancy test result at screening visit (Visit 1). […]

[3] = test system: gout patients; settings: patient group receiving the drug, previous results; cited from earlier work

SMILES | incidence of TEAEs ([1]; 50 mg, 100 mg and 200 mg groups, vs placebo and febuxostat groups) | patients for whom administration was stopped ([1]; 100 mg dosing group, headache, gout flare in the left ankle, liver dysfunction) | patients for whom administration was stopped ([1]; 200 mg dosing group, increase in hepatic enzyme) | adverse cardiovascular TEAEs ([1]; all dosing groups) | blood uric acid lowering effect compared to febuxostat ([2]; 50 mg, 100 mg, 200 mg vs febuxostat 40 mg) | blood uric acid concentration kept within the normal range during the dosing period ([2]; doses of 50 mg, 100 mg and 200 mg, reached within 2 weeks) | patients with a blood uric acid concentration of less than 6 mg/dL [3]
CC(C)n1cc(C#N)c2cc(-n3cc(C(=O)O)cn3)ccc21 [Example 1, 1-(3-cyano-1-isopropyl-indol-5-yl)pyrazole-4-carboxylic acid] | did not show a significant difference in the incidence of TEAEs | 3 patients | 1 patient | no reports of adverse cardiovascular TEAEs having a causal relationship | equivalent or higher blood uric acid lowering effect | < 6.0 mg/dL | –
Oc1ncnc2[nH]ncc12 [allopurinol] | – | – | – | – | – | – | about 40%
